# Experimental data as given in patent US7605137B2, “Combination therapy comprising cloretazine” (priority 2004, dated 2009).
# Entries after “also recorded” stand apart in the source; their conditions may differ. Read-outs that look alike come from different tables or passages of the source.
# Experiments:
# [1] = system: L1210 leukemia; test: In vivo antitumor activity of VNP40101M and AraC on ip L1210 leukemia (1×10^6 cells), survival; design: species or system CD2F1 mice; details: 1×10^6 L1210 cells ip; for Long-term Survivors (%): survival more than 60 days
# Method: Eighty Female Balb/c×DBA/2 (CD2F1) mice were inoculated intraperitoneally (ip) on day 0 with 1×10^6 L1210 cells in 0.2 mL phosphate-buffered-saline (PBS). The mice were randomly divided into 6 groups; each group consisted of 10 mice. The animals were untreated or treated with a single bolus dose of VNP40101M at 5, or 10 mg/kg, ip, on day 1 with or without AraC (50 mg/kg, ip) on days 1, 3, 5, 7, and 9. Daring the experiments, mice were observed daily for survival. It was determined that mice that survive for more than 60 days after inoculation of L1210 cells might be regarded as long-term survivors. Kaplan-Meier plots were generated, and survival time of animals was analyzed using student T-test. Significance was defined as P<0.05.
# [2] = system: L1210 leukemia; test: In vivo antitumor activity of VNP40101M and fludarabine on ip L1210 leukemia (3×10^6 cells), survival; design: species or system CD2F1 mice; details: 3×10^6 L1210 cells ip; for Long-term Survivors (%): survival more than 60 days
# Method: Eighty Female Balb/c×DBA/2 (CD2F1) mice are inoculated intraperitoneally (ip) on day 0 with 3×10^6 L1210 cells in 0.2 mL phosphate-buffered-saline (PBS). The mice are randomly divided into 6 groups; each group consists of 10 mice. The animals are untreated or treated with a single bolus dose of VNP40101M at 5, or 10 mg/kg, ip, on day 1 with or without fludarabine (70 mg/kg, ip) on multiple days between days 1 to 9. During the experiments, mice are observed daily for survival. It is determined that mice that survive for more than 60 days after inoculation of L1210 cells might be regarded as long-term survivors. Kaplan-Meier plots are generated, and survival time of animals is analyzed using student T-test. Significance is defined as P<0.05.
# [3] = cited from earlier work
# [4] = system: intra-cranially implanted L1210 leukemia; details: cited from earlier work
# [5] = system: L1210 leukemia (10^6 tumor cells) resistant to BCNU, cyclophosphamide, or melphalan; details: cited from earlier work
# [6] = system: human HTB177 lung (H460) carcinoma; details: weekly IP, 10-60 mg/kg; cited from earlier work
# [7] = system: murine M109 lung carcinoma; details: cited from earlier work
# [8] = system: human U251 glioma; details: 10 mg/kg q2d×11 or 20 mg/kg q4d×6 IP; tumors staged to ~300 mg; cited from earlier work
# [9] = system: B16F10 melanoma; details: weekly IP, 10-60 mg/kg; cited from earlier work
# [10] = system: advanced hematologic malignancies; details: cited from earlier work
# [11] = cited from earlier work; remark: listed apart in the source
# [12] = cited from earlier work; remark: listed apart in the source
# [13] = system: human WiDr colon carcinoma; details: weekly IP, 10-60 mg/kg; cited from earlier work
# [14] = cited from earlier work; remark: listed apart in the source
# [15] = system: L1210 leukemia; test: In vitro cytotoxicity of VNP40101M and AraC, cell viability assay (mitochondrial oxidoreductase activity); format: cell-based, murine; details: AraC and VNP40101M 0.75-6 uM
# Method: The cytotoxicity of the combination of VNP40101M and Arac on L1210 leukemia was examined using a cell viability assay. Cells were exposed to VNP40101M, alone or in combination with various concentrations of AraC. After 72 hours, the remaining viable cells were quantified by measuring mitochondrial oxidoreductase activity. Concentrations of AraC and VNP40101M used were between 0.75 and 6 uM. Dose-effect analyses (combination index) showing combination effects of VNP40101M and AraC were analyzed.
# [16] = single dose 80-100 mg/kg IP, tumor-bearing mice
# [17] = VNP40101M 5 mg/kg ip single bolus day 1
# [18] = VNP40101M 10 mg/kg ip single bolus day 1
compound,measurement,setting,value
"Nc1ccn([C@@H]2O[C@H](CO)[C@@H](O)[C@@H]2O)c(=O)n1 [AraC, Cytarabine, reference compound]",Long-term Survivors (%),"[1]; AraC 50 mg/kg ip days 1, 3, 5, 7, 9",0%
same,Time to death of all animals,"[1]; AraC treatment control, 50 mg/kg ip days 1, 3, 5, 7, 9",≤ 30 days
"Nc1nc(F)nc2c1ncn2[C@@H]1O[C@H](CO)[C@@H](O)[C@@H]1O [Fluda, Fludarabine, reference compound]",Long-term Survivors (%),[2]; fludarabine 70 mg/kg ip multiple days between days 1 to 9,0%
same,Time to death of all animals,"[2]; fludarabine treatment control, 70 mg/kg ip",≤ 30 days
"CNC(=O)N(N(CCCl)S(C)(=O)=O)S(C)(=O)=O [VNP40101M, 1,2-Bis(methylsulfonyl)-1-(2-chloroethyl)-2-(methylaminocarbonyl) hydrazine]",Dose-limiting non-hematologic toxicities,[3]; 3-305 mg/m^2,No dose-limiting non-hematologic toxicities were observed
same,Maximum tolerated dose (MTD),[3]; IV infusion over 15-30 minutes every 4-6 weeks,305 mg/m^2
same,Platelet nadir,[3]; MTD 305 mg/m^2,25 to 33 days
same,Patients with grade 3 thrombocytopenia,[3]; among seven patients treated at the MTD (305 mg/m^2),six
same,Recovery of hematologic toxicities to ≦ grade 1,"[3]; human, in vivo",32-45 days
same,Patients with ≧grade 2 granulocytopenia,[3]; patients treated at the MTD (305 mg/m^2),Five
same,Anti-tumor activity against intra-cranially implanted L1210 leukemia,[4]; IP administration,Substantial anti-tumor activity
same,Crossing the blood brain barrier,[4]; inferred from activity against intra-cranially implanted leukemia,good penetration through the blood-brain barrier; also recorded: effective in crossing the blood brain barrier
same,Cell kill of leukemia cells implanted intracranially,[4]; leukemia cells implanted intracranially,> 6.54 log cell kill
same,Increase in life span compared to control mice,[5]; 6 mg/kg/d IP daily for 6 days (total dose 36 mg/kg),333%
same,Cure,[5]; 12-18 mg/kg/d IP daily for 6 days (total doses 72-108 mg/kg),100 % of animals
same,Delayed toxic deaths,"[5]; d×6 schedule, total doses up to 108 mg/kg",not observed
same,Myelosuppression at doses producing long-term survival,[5]; non-tumor-bearing mice,only modestly myelosuppressive
same,Time of toxic deaths after treatment,[5]; [16],> 50 days
same,Toxicity of higher single doses,[5]; [16],signs of a wasting condition and death in some animals; also recorded: signs of a wasting condition and deaths
same,Cure (survival ≧60 days),"[5]; single dose IP 24 hours after tumor inoculation, 20-60 mg/kg (60-180 mg/m^2)",100 % of mice
same,Tumor growth,[6],significant delays in tumor growth
same,Tumor growth,"[7]; 10 mg/kg q2d×10 or 20 mg/kg q4d×5 IP, tumors staged to ~150 mg",delayed tumor growth
same,Delay of time to reach 1 gram,[7]; 20 mg/kg q4d×5 IP,14 days
same,Tumor response,[8],complete regressions
same,Tumor growth,[9],significant delays in tumor growth
same,Clinical response,"[10]; 220 mg/m^2, heavily pre-treated patient with AML",substantial clearing of marrow blasts
same,Clinical response,"[10]; 300 mg/m^2 single course, one previously untreated patient with high-risk myelodysplasia",complete response by day 28
same,Clinical response,"[10]; 532 mg/M^2, patient with AML, by day 28",reduction in marrow blasts
same,Duration of prolonged marrow aplasia,"[10]; 708 mg/m^2, one of seven patients",> 80 days
same,Peripheral blood blasts,[10]; all dose levels (220-708 mg/m^2),reduced peripheral blood blasts at least transiently in most patients
same,Infusion-related reaction,[10]; doses ≧400 mg/m2,transient infusion-related syndrome
same,Dose-limiting non-hematologic toxicities,[10]; through the dose of 708 mg/m^2,no dose-limiting non-hematologic toxicities were observed
same,Clinical signs and symptoms,[11]; 1 mg/kg (20 mg/m^2) IV d×5,minimal clinical signs and symptoms
same,Leukopenia,"[11]; 1 mg/kg IV d×5, recovered to baseline by day 15",mild leukopenia on day 8
same,Leukopenia,[11]; 3 mg/kg IV d×5,marked leukopenia by day 8
same,Clinical signs,"[11]; 3 mg/kg IV d×5, sacrifice on day 8",marked clinical signs
same,Tolerability,"[11]; single IV doses 1 and 3 mg/kg, at least 21 days of observation",well-tolerated
same,Clinical signs,[11]; single IV doses 10 and 30 mg/kg (200 and 600 mg/m^2),marked clinical signs
same,White blood cell count,"[12]; 60 mg/kg, by day 4",approximately 25 % of baseline
same,White blood cell count,"[12]; 80 mg/kg, by day 4",~15 % of baseline
same,WBC recovery,[12]; 60-80 mg/kg,full recovery by day 21
same,White blood cell count,[12]; single IP dose 40 mg/kg (120 mg/m^2),50 % of baseline
same,Long-term Survivors (%),[1]; [17],50%
same,Long-term Survivors (%),[1]; [18],90%
same,Tumor growth,[13],significant delays in tumor growth
same,Long-term Survivors (%),[2]; [17],0%
same,Long-term Survivors (%),[2]; [18],40%
same,Clinical signs or symptoms,"[14]; 3 mg/kg (18 mg/m^2) IV d×5, day 15",no clinical signs or symptoms
same,Rats with lung findings,"[14]; 3 mg/kg IV d×5, day 29",2/10
same,Microscopic findings (lung),[14]; 3 mg/kg IV d×5,"alveolar edema, congestion, alveolar histiocytosis, and vascular thrombi"
same,Gross necropsy findings,"[14]; 10 mg/kg (60 mg/m^2) d×5, day 15",few significant gross necropsy findings
same,Effects on serum chemistries,"[14]; 10 mg/kg dose group, day 29",decreases in total protein and albumin
same,Animals with thoracic cavity fluid,"[14]; 10 mg/kg d×5, sacrificed on day 29",approximately 50 % of animals
same,Animals with thoracic cavity fluid,"[14]; 10 mg/kg d×5, sacrificed on days 30/31",6/6
same,Myelosuppression,[14]; doses as high as 10 mg/kg d×5,not observed
same,Combination effect with AraC on L1210 leukemia,[15],worked synergistically with AraC
